Data on eight molecules can be found in patent publication US12116698B1, “Protein surface recognition via chemically enhanced phage display” (The Trustees of Boston College, priority 2019, dated 2024).

“Also recorded” adds a separate entry of the source. Where a SMILES comes first, the peptide text is derived from it. Where no end group is shown, it is not given here. [ ]: non-standard residue; d: D form. The star is where a group is joined. APBA = (2-acetyl-5-(3-(2-iodoacetamido)propoxy)phenyl)boronic acid, Cys modified with it (Cm in name), CC(=O)c1ccc(OCCCNC(=O)C*)cc1B(O)O; X1 = CC(=O)c1ccc(OCCCNC(=O)C*)cc1B(O)O; Dap = NC[C@H](N)C(=O)O; Cam = NC(=O)C*

The target of one assay is streptavidin (Streptomyces avidinii, UniProt P22629). It counts as binding. Particulars: for fluorescence brightness of streptavidin beads on addition of BSA: BSA 1 mg/mL; for fluorescence staining of streptavidin beads after surface lysine acetylation: beads treated with Ac-NHS, 3 mM; for fluorescence staining of streptavidin-coated beads: excess biotin present; for effect of biotin on fluorescence staining of streptavidin-coated beads: with and without biotin; for staining of streptavidin-coated beads by SrtA screen peptides: even at 25 μm; for staining of streptavidin beads without SrtA coating: streptavidin beads alone, no SrtA.

The target of assay [1] is T1, sortase A (SrtA) (Staphylococcus aureus, UniProt Q2FV99). It counts as binding, S. aureus. As to conditions: for staining of SrtA-coated beads in the presence of BSA: 10 mg/mL BSA; for fluorescence staining of SrtA-coated beads: peptide at 25 μM.
The target in assay [2] is T1, sortase A (SrtA). As to conditions: competition with DMMA.
Description: To probe the peptides' binding site on SrtA, a competition experiment was designed using a known small molecule inhibitor of SrtA, DMMA (FIG. 8E).

Chain of streptavidin (P22629 37-163 limits assumed): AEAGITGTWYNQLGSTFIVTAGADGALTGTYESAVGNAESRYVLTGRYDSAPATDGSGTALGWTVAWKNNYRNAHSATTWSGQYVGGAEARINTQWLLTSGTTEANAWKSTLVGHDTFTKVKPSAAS
T1 sequence (Q2FV99 whole entry): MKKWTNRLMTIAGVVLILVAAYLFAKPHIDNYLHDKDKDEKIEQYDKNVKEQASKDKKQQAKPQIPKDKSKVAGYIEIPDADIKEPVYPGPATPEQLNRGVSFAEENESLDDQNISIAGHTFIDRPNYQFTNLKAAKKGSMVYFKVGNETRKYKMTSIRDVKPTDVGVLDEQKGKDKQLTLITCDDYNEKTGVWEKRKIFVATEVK

For `CC(=O)c1ccc(OCCCNC(=O)CSC[C@H](NC(=O)[C@H](C)N)C(=O)N[C@H](C(=O)N2CCC[C@H]2C(=O)N[C@@H](CCCNC(=N)N)C(=O)N[C@@H](CO)C(=O)N[C@@H](C)C(=O)N[C@@H](CC(N)=O)C(=O)N[C@@H](Cc2ccc(O)cc2)C(=O)N[C@@H](CSCC(=O)NCCCOc2ccc(C(C)=O)c(B(O)O)c2)C(=O)NCC(=O)NCC(=O)NCC(=O)N[C@@H](CN)C(N)=O)[C@@H](C)O)cc1B(O)O` [SA1, ACmTPRSANYCmGGGDap] (H-AC(X1)TPRSANYC(X1)GGG[Dap]-NH2; N-terminus and C-terminus assumed), on streptavidin, the “fluorescence brightness of streptavidin beads on addition of BSA” value is on record as “minimally affected”; the “fluorescence staining of streptavidin beads after surface lysine acetylation” value was “completely abolished the fluorescence staining”; the “fluorescence staining of streptavidin-coated beads” value is on record as “fluorescence staining of the beads at low micromolar concentrations”; the “effect of biotin on fluorescence staining of streptavidin-coated beads” value is “marginal differences in fluorescence intensity with and without biotin”.

`CC(=O)c1ccc(OCCCNC(=O)CSC[C@H](NC(=O)[C@H](C)N)C(=O)N[C@@H](CC(=O)O)C(=O)NCC(=O)N[C@@H](CCCNC(=N)N)C(=O)N2CCC[C@H]2C(=O)N[C@@H](CC(=O)O)C(=O)N[C@@H](CCCNC(=N)N)C(=O)N[C@@H](C)C(=O)N[C@@H](CSCC(=O)NCCCOc2ccc(C(C)=O)c(B(O)O)c2)C(=O)NCC(=O)NCC(=O)NCC(=O)N[C@@H](CN)C(N)=O)cc1B(O)O` [SA2, ACmDGRPDRACmGGGDap] (H-AC(X1)DGRPDRAC(X1)GGG[Dap]-NH2; N-terminus and C-terminus assumed): at streptavidin, the “fluorescence brightness of streptavidin beads on addition of BSA” value is listed as “minimally affected”; the “fluorescence staining of streptavidin beads after surface lysine acetylation” value was “greatly reduced the fluorescence staining”; the “fluorescence staining of streptavidin-coated beads” value is listed as “fluorescence staining of the beads at low micromolar concentrations”; the “effect of biotin on fluorescence staining of streptavidin-coated beads” value was “marginal differences in fluorescence intensity with and without biotin”.

On to `CC(=O)c1ccc(OCCCNC(=O)CSC[C@H](NC(=O)[C@H](C)N)C(=O)N[C@@H](Cc2c[nH]cn2)C(=O)N2CCC[C@H]2C(=O)N[C@H](C(=O)N[C@@H](CO)C(=O)NCC(=O)N[C@@H](CCC(N)=O)C(=O)N[C@@H](CCCCN)C(=O)N[C@@H](CSCC(=O)NCCCOc2ccc(C(C)=O)c(B(O)O)c2)C(=O)NCC(=O)NCC(=O)NCC(=O)N[C@@H](CN)C(N)=O)C(C)C)cc1B(O)O` [W1, ACmHPVSGQKCmGGGDap] (H-AC(X1)HPVSGQKC(X1)GGG[Dap]-NH2), for which, at streptavidin, the “staining of streptavidin-coated beads by SrtA screen peptides” value (“staining … by SrtA screen peptides” for short) is on record as “fail to stain streptavidin-coated beads” and the “staining of streptavidin beads without SrtA coating” value was “little binding to the agarose beads”. At sortase A (SrtA) [1], the “staining of SrtA-coated beads in the presence of BSA” value is listed as “greater inhibition was observed” and the “fluorescence staining of SrtA-coated beads” value is given as “strong fluorescence staining of the SrtA-coated beads”. Further, the “effect of DMMA addition on SrtA binding” value on sortase A (SrtA) [2] was “no inhibition of the SrtA binding”.

Take `CC(=O)c1ccc(OCCCNC(=O)CSC[C@H](NC(=O)[C@H](C)N)C(=O)N[C@@H](CC(C)C)C(=O)N[C@@H](CC(N)=O)C(=O)N[C@@H](CO)C(=O)N[C@@H](CO)C(=O)N[C@@H](CCC(N)=O)C(=O)N2CCC[C@H]2C(=O)N[C@@H](CO)C(=O)N[C@@H](CSCC(=O)NCCCOc2ccc(C(C)=O)c(B(O)O)c2)C(=O)NCC(=O)NCC(=O)NCC(=O)N[C@@H](CN)C(N)=O)cc1B(O)O` [W2, ACmLNSSQPSCmGGGDap] (H-AC(X1)LNSSQPSC(X1)GGG[Dap]-NH2; N-terminus and C-terminus assumed): at streptavidin, the “staining … by SrtA screen peptides” value is recorded as “fail to stain streptavidin-coated beads” and the “staining of streptavidin beads without SrtA coating” value is recorded as “little binding to the agarose beads”. Besides, at sortase A (SrtA) [1], the “staining of SrtA-coated beads in the presence of BSA” value is “effective binding; also recorded: stain the SrtA coated beads” and the “fluorescence staining of SrtA-coated beads” value is listed as “strong fluorescence staining of the SrtA-coated beads”. Also, the “effect of DMMA addition on SrtA binding” value at sortase A (SrtA) [2] is on record as “binds the SrtA surface instead of the catalytic site; also recorded: no inhibition of the SrtA binding”.

Regarding “ACmIQKNTTTCmGGGDap (AC(APBA)IQKNTTTC(APBA)GGG[Dap]; not fully specified (residue 14); also: APBA dimer modification, fluorescent label on Dap14) [W3]”, in the assay with streptavidin, the “staining … by SrtA screen peptides” value was “fail to stain streptavidin-coated beads” and the “staining of streptavidin beads without SrtA coating” value is recorded as “no fluorescence staining of the streptavidin beads alone”. The “fluorescence staining of SrtA-coated beads” value in the assay with sortase A (SrtA) [1] is reported as “weak fluorescence staining of SrtA-coated beads; also recorded: much lower fluorescence staining of the beads”.

Regarding “ACmTPNKTPKCmGGGDap (AC(APBA)TPNKTPKC(APBA)GGG[Dap]; not fully specified (residue 14); also: APBA dimer modification, fluorescent label on Dap14) [W4]”, in the assay with streptavidin, the “staining … by SrtA screen peptides” value was “fail to stain streptavidin-coated beads” and the “staining of streptavidin beads without SrtA coating” value is given as “no fluorescence staining of the streptavidin beads alone”. For the same molecule, the “fluorescence staining of SrtA-coated beads” value with sortase A (SrtA) [1] is recorded as “weak fluorescence staining of SrtA-coated beads; also recorded: much lower fluorescence staining of the beads”.

For “AcmDGRPDRACmGGGDap (AC(Cam)DGRPDRAC(APBA)GGG[Dap]; not fully specified (residue 14); also: fluorescent label on Dap, identity not given here) [SA2-IA, reference compound]”, in the assay with streptavidin, the “fluorescence staining of streptavidin-coated beads” value is recorded as “failed to stain the streptavidin beads”.

“AcmTPRSANYCmGGGDap (AC(Cam)TPRSANYC(APBA)GGG[Dap]; not fully specified (residue 14); also: fluorescent label on Dap, identity not given here) [SA1-IA, reference compound]”: in the assay with streptavidin, the “fluorescence staining of streptavidin-coated beads” value is “failed to stain the streptavidin beads”.
